assay type: physicochemical; settings: vs Pt reference electrode; mobile phase 50 mM LiClO4 in 50:50 water/ACN; porous graphitic working electrode
Method: A standard phenol mixture (100 μM) was dissolved in (50:50) water/ACN to form a sample solution. Mobile phase A consisted of 50 mM LiClO4 in water, while mobile phase B consisted of 50 mM LiClO4 in ACN; a 50:50 mix was used. The sample solution was introduced into an Eksigent ExpressLC system through a micro-injector (40 nL) and separated on an HPLC column (Eksigent Technologies, 300 μm i.d., 15 cm; 3 μm C18 particles). The eluent from the column was run sequentially through a low-dispersion UV detector (Eksigent Technologies) and then through an electrochemical detection system according to an embodiment of the present invention.
The electrochemical detection system had two independent cells in series, connected by a fused silica capillary.

**Q.** For `Oc1ccc(Cl)cc1Cl` [2,4-dichlorophenol], which E1/2 is on record?
**A.** 305 mV

**Q.** For `Cc1ccc(O)c(C)c1` [2,4-dimethylphenol], which E1/2 is on record?
**A.** 304 mV

**Q.** Which E1/2 does the source give for `Oc1ccccc1Cl` [2-chlorophenol] here?
**A.** 139 mV

**Q.** With `Cc1cc(O)ccc1Cl` [4-chloro-3-methylphenol] as the compound, how does the E1/2 read?
**A.** 314 mV

**Q.** For `Oc1ccccc1` [phenol], which E1/2 is on record?
**A.** 336 mV

Reference: US20070170056A1, “Microscale electrochemical cell and methods incorporating the cell” (priority 2006, published 2007)
